Laboratory results: ChEMBL document CHEMBL5154675, “Design, Synthesis, and Biological Evaluation of 1-(Indolizin-3-yl)ethan-1-ones as CBP Bromodomain Inhibitors for the Treatment of Prostate Cancer” (J Med Chem, 2022)
Values belong to the compound of their own block, whether it stands above or below them.

Legend:
LNCaP C4-2B = experiment: Antiproliferative activity against human LNCaP C4-2B cells assessed as inhibition of cell growth by Celltiter-Glo assay; format: functional, cell-based
CREB-binding protein [1] = target: T1, CREB-binding protein (Homo sapiens, UniProt Q92793); experiment: Inhibition of His6-tagged human CBP bromodomain (1081 to 1197 residues) expressed in Escherichia coli BL21 (DE3) incubated for 30 mins by HTRF assay
Target sequence in this assay (Q92793 whole entry, the tested form may be a part): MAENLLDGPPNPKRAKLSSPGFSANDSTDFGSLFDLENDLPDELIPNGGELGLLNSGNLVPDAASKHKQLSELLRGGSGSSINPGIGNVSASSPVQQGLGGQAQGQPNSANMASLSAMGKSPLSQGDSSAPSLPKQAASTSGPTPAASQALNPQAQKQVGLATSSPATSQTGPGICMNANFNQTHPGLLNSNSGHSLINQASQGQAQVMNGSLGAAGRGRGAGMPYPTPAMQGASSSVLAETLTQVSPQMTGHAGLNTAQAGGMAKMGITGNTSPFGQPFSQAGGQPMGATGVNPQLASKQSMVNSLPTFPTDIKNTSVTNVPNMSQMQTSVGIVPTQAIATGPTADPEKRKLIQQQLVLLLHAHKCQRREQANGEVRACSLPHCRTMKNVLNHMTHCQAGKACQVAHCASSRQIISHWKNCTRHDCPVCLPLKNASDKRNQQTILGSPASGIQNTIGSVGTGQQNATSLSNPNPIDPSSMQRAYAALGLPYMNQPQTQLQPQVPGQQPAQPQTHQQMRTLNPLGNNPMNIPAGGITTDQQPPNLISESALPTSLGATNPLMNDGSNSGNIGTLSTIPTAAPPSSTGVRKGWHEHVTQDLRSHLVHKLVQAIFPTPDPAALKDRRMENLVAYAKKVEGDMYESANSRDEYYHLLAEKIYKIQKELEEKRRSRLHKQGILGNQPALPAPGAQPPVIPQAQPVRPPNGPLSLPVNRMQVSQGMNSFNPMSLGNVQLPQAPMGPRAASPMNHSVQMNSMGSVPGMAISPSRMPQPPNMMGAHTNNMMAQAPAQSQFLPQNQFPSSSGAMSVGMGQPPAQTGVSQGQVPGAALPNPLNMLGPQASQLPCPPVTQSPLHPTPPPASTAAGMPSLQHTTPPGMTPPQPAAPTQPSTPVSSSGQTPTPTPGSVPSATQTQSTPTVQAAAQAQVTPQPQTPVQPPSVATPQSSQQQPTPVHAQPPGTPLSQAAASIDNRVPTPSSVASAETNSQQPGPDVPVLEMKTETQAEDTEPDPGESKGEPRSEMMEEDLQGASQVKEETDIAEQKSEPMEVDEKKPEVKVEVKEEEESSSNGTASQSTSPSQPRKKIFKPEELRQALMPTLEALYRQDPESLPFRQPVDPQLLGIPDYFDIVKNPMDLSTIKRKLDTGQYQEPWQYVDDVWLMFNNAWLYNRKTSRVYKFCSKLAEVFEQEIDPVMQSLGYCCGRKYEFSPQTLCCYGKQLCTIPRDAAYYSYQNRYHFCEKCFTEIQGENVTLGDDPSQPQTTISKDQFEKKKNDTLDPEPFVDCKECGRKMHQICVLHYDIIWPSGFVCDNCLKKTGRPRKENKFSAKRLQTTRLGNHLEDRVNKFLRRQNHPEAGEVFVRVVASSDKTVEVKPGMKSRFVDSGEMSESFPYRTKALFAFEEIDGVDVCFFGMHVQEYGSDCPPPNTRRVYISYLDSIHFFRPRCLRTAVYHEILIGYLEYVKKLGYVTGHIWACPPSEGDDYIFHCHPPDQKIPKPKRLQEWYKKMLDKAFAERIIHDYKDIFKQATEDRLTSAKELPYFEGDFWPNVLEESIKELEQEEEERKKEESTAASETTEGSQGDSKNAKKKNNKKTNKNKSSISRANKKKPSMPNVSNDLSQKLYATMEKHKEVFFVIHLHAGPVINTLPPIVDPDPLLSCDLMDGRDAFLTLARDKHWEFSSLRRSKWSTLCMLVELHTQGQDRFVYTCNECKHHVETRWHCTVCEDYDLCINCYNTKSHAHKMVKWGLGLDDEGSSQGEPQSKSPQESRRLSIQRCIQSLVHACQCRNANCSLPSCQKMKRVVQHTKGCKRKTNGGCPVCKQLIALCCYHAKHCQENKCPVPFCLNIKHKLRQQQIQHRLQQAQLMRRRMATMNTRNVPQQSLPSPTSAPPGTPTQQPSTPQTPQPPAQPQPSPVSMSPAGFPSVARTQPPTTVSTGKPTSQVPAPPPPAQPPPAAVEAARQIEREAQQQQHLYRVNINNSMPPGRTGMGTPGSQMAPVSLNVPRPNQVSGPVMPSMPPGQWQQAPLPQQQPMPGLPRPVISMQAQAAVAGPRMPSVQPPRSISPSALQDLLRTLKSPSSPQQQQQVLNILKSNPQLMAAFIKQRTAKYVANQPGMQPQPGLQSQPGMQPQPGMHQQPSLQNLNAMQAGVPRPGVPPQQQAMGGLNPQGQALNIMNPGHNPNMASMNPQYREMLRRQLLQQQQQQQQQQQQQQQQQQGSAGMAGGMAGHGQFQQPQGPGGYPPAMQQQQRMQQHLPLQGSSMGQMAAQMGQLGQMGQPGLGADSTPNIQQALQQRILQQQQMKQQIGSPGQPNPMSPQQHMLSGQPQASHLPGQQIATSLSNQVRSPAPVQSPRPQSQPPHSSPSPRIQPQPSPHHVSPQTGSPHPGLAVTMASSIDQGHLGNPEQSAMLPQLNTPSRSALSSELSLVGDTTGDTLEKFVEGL

CREB-binding protein [2] = target: T1, CREB-binding protein; settings: dose 200.0 µM, time 30.0 min
Target sequence in this assay (Q92793 2-2442 limits assumed): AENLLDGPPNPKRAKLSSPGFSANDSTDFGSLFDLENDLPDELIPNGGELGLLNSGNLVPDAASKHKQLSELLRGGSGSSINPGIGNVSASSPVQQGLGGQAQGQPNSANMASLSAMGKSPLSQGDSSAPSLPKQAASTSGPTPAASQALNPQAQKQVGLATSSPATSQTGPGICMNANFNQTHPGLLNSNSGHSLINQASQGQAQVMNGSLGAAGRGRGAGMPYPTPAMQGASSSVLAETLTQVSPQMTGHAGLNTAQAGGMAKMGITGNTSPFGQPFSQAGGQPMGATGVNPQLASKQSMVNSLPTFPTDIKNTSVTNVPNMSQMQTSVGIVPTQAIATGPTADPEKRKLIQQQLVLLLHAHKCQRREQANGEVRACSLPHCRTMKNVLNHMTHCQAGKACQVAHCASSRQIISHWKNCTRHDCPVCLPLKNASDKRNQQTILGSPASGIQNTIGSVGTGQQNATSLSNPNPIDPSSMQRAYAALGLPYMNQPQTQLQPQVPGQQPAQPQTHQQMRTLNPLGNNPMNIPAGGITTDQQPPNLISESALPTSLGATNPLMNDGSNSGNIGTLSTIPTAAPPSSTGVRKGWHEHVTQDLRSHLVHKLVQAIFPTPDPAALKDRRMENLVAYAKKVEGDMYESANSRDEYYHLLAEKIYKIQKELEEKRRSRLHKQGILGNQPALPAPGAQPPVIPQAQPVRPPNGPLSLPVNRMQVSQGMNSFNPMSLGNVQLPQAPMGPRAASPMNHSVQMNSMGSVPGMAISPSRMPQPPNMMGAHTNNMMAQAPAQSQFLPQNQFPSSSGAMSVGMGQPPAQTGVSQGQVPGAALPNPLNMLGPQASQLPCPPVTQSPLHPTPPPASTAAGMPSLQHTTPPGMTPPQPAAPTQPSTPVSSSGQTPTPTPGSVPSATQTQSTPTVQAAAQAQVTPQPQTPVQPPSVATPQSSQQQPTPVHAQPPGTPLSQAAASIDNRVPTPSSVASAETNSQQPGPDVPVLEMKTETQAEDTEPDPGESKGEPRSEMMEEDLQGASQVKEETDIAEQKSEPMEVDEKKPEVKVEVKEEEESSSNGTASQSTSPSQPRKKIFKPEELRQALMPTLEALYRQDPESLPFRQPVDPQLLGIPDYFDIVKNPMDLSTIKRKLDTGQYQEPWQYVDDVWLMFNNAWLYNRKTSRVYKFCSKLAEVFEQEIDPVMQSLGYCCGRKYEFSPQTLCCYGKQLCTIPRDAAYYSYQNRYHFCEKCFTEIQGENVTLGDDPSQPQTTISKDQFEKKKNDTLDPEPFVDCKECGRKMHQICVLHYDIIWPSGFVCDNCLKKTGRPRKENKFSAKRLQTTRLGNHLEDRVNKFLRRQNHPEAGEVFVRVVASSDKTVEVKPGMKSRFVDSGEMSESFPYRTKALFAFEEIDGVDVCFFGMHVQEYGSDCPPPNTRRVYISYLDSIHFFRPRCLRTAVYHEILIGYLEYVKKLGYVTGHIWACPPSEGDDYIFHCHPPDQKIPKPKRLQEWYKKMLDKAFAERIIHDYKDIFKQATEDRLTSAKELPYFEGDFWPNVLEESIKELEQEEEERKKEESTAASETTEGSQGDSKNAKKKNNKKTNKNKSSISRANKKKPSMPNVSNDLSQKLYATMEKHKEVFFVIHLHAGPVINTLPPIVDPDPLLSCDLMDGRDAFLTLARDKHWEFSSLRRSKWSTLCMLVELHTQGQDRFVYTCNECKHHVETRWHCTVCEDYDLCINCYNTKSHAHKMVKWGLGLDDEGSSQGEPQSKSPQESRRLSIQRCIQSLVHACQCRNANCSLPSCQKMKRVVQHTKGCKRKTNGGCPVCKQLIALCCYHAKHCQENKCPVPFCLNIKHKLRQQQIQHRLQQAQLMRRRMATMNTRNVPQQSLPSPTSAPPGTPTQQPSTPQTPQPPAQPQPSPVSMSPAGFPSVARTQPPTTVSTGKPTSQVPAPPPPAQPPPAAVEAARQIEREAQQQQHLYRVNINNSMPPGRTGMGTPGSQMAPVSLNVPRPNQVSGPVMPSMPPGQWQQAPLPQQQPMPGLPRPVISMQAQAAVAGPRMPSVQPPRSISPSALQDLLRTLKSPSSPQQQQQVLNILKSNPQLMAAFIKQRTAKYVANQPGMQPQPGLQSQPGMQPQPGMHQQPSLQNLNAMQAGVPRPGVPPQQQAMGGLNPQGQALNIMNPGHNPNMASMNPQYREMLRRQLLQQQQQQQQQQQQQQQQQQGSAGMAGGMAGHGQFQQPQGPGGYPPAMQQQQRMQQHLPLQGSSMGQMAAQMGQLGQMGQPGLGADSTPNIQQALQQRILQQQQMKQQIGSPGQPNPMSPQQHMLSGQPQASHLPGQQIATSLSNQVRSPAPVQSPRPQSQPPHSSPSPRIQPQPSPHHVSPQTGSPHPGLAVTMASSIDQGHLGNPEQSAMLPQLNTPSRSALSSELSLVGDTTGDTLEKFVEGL

[3] = Apparent permeability across apical to basolateral side in human Caco-2 cells at 10 uM measured after 2 hrs by LC-MS/MS analysis; format: ADME, cell-based
[4] = Apparent permeability across basolateral to apical side in human Caco-2 cells assessed as drug recovery at 10 uM measured after 2 hrs by LC-MS/MS analysis; format: ADME, cell-based; settings: read-out: Drug recovery
[5] = Hepatic clearance in rat liver microsomes at 1 uM incubated for 45 mins in presence of NADPH by LC-MS/MS analysis; format: ADME, Microsome
[6] = Half life in rat liver microsomes at 1 uM incubated for 45 mins in presence of NADPH by LC-MS/MS analysis; format: ADME, Microsome
[7] = Intrinsic clearance in rat liver microsomes at 1 uM incubated for 45 mins in presence of NADPH by LC-MS/MS analysis; format: ADME, Microsome; settings: read-out: CLH
[8] = Apparent permeability across apical to basolateral side in human Caco-2 cells assessed as drug recovery at 10 uM measured after 2 hrs by LC-MS/MS analysis; format: ADME, cell-based; settings: read-out: Drug recovery
[9] = target: T2, Bromodomain-containing protein 9 (Homo sapiens) (UniProt Q9H8M2); settings: dose 200.0 µM, time 30.0 min
T2 sequence (whole entry): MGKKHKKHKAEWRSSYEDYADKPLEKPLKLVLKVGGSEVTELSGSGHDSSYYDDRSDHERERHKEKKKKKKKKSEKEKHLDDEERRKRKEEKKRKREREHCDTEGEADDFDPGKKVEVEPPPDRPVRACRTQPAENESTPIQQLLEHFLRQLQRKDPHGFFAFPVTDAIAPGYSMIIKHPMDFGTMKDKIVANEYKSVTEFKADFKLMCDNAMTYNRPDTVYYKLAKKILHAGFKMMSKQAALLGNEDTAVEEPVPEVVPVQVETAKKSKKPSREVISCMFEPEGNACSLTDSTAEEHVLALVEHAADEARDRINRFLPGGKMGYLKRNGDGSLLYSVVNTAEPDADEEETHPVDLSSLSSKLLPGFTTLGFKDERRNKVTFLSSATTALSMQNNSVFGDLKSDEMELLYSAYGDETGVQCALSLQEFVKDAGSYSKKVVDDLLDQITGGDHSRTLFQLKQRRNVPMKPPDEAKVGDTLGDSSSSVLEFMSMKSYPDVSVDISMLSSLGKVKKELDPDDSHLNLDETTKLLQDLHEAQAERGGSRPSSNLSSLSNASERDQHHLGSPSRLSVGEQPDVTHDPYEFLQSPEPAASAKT

[10] = target: T3, Bromodomain-containing protein 4 (Homo sapiens, UniProt O60885); settings: dose 200.0 µM, time 30.0 min
[11] = target: T4, Bromodomain-containing protein 3 (Homo sapiens, UniProt Q15059); settings: dose 200.0 µM, time 30.0 min
[12] = target: T3, Bromodomain-containing protein 4; settings: dose 200.0 µM, time 30.0 min; remark: listed apart in the source
[13] = target: Bromodomain adjacent to zinc finger domain protein 2B (Homo sapiens) (UniProt Q9UIF8); settings: dose 200.0 µM, time 30.0 min
[14] = target: Chromatin remodeling regulator CECR2 (Homo sapiens) (UniProt Q9BXF3); settings: dose 200.0 µM, time 30.0 min
[15] = target: T4, Bromodomain-containing protein 3; settings: dose 200.0 µM, time 30.0 min; remark: listed apart in the source
[16] = target: T5, Bromodomain-containing protein 2 (Homo sapiens, UniProt P25440); settings: dose 200.0 µM, time 30.0 min
CREB-binding protein [17] = target: T1, CREB-binding protein; experiment: Binding affinity to His6-tagged human CBP bromodomain (1081 to 1197 residues) expressed in Escherichia coli BL21 (DE3) assessed as dissociation constant by ITC analysis
Target sequence in this assay (Q92793 whole entry, the tested form may be a part): as the sequence (Q92793 whole entry, the tested form may be a part) above

LNCaP = experiment: Antiproliferative activity against human LNCaP cells assessed as cell growth inhibition by Celltiter-Glo assay; format: functional, cell-based
[18] = target: Histone acetyltransferase KAT2B (Homo sapiens) (UniProt Q92831); settings: dose 200.0 µM, time 30.0 min
[19] = target: Histone acetyltransferase p300 (Homo sapiens) (UniProt Q09472); settings: dose 200.0 µM, time 30.0 min
[20] = target: T6, Bromodomain testis-specific protein (Homo sapiens, UniProt Q58F21); settings: dose 200.0 µM, time 30.0 min
CWR22R = experiment: Antiproliferative activity against human 22Rv1 cells assessed as cell growth inhibition by Celltiter-Glo assay; format: functional, cell-based
[21] = target: PH-interacting protein (Homo sapiens) (UniProt Q8WWQ0); settings: dose 200.0 µM, time 30.0 min
[22] = target: SWI/SNF-related matrix-associated actin-dependent regulator of chromatin subfamily A member 2 (Homo sapiens) (UniProt P51531); settings: dose 200.0 µM, time 30.0 min
[23] = target: T6, Bromodomain testis-specific protein; settings: dose 200.0 µM, time 30.0 min; remark: listed apart in the source
[24] = target: T5, Bromodomain-containing protein 2; settings: dose 200.0 µM, time 30.0 min; remark: listed apart in the source
[25] = Metabolic stability in rat liver microsomes assessed as parent compound remaining at 1 uM incubated for 45 mins in presence of NADPH by LC-MS/MS analysis; format: ADME, Microsome; settings: read-out: Stability
[26] = Apparent permeability across basolateral to apical side in human Caco-2 cells at 10 uM measured after 2 hrs by LC-MS/MS analysis; format: ADME, cell-based

IC50 (LNCaP C4-2B): 42000 nM | IC50 (CREB-binding protein [1]): 79 nM | ΔTm (CREB-binding protein [2]): 12 °C
Compound: CC(=O)c1cc(C(=O)Nc2cc(C(C)O)cc(-c3cnn(C4CC4)c3)c2F)c2cc(O)ccn12 (stereo not drawn)

IC50 (LNCaP C4-2B): 49700 nM | ΔTm (CREB-binding protein [2]): 3.9 °C
Compound: CC(=O)c1cc(C(=O)Nc2cc(CO)cc(-c3cnn(C)c3)c2F)c2cc(OCc3ccccc3)ccn12

recovery at 2 h, 10 µM [4]: 94.2% | recovery at 2 h, 10 µM [8]: 94.8%
Compound: CC(C)NCC(O)COc1ccc(CC(N)=O)cc1 (stereo not drawn) [ATENOLOL]

IC50 (LNCaP C4-2B): 17400 nM | IC50 (CREB-binding protein [1]): 13 nM | ΔTm (CREB-binding protein [2]): 5.4 °C
Compound: COc1ccn2c(C(C)=O)cc(C(=O)Nc3cc(C=O)cc(-c4cnn(C)c4)c3F)c2c1

Papp A→B at 2 h, 10 µM [3]: 28.3 ×10⁻⁶ cm/s | recovery at 2 h, 10 µM [4]: 90.7% | Papp B→A at 2 h, 10 µM [26]: 18.9 ×10⁻⁶ cm/s | recovery at 2 h, 10 µM [8]: 85%
Compound: CC(C)NCC(O)COc1cccc2ccccc12 (stereo not drawn) [PROPRANOLOL]

The remaining lines, values behind:

Compound: CC(=O)c1cc(C(=O)Nc2cc(CO)cc(-c3cnn(C)c3)c2F)c2cc(OC(=O)C(C)(C)C)ccn12
IC50 (LNCaP C4-2B): 29600 nM | IC50 (CREB-binding protein [1]): 42 nM | ΔTm (CREB-binding protein [2]): 6 °C

Compound: C[C@H]1O[C@@H](O[C@H]2[C@@H](O)C[C@H](O[C@H]3[C@@H](O)C[C@H](O[C@H]4CC[C@@]5(C)[C@H](CC[C@@H]6[C@@H]5C[C@@H](O)[C@]5(C)[C@@H](C7=CC(=O)OC7)CC[C@]65O)C4)O[C@@H]3C)O[C@@H]2C)C[C@H](O)[C@@H]1O [DIGOXIN]
Papp A→B at 2 h, 10 µM [3]: 1.26 ×10⁻⁶ cm/s | recovery at 2 h, 10 µM [4]: 92.7%

Compound: CNc1ccn2c(C(C)=O)cc(C(=O)Nc3cc(CO)cc(-c4cnn(C)c4)c3F)c2c1
IC50 (LNCaP C4-2B): > 50000 nM | IC50 (CREB-binding protein [1]): 2.1 nM | ΔTm (CREB-binding protein [2]): 9.9 °C

Compound: O=C(c1ccc(F)cc1)C1CCN(CCn2c(=O)[nH]c3ccccc3c2=O)CC1 [KETANSERIN]
CLhep predicted at 1 µM [5]: 41 mL/min/kg | half-life at 1 µM [6]: 15.6 min | CLint scaled at 1 µM [7]: 159 mL/min/kg

Compound: CC(=O)c1cc(C(=O)Nc2cc(CO)cc(-c3cnn(C)c3)c2F)c2cc(C)ccn12
IC50 (LNCaP C4-2B): > 50000 nM | IC50 (CREB-binding protein [1]): 14 nM | ΔTm (CREB-binding protein [2]): 6.3 °C

Compound: CC(=O)c1cc(C(=O)Nc2cc(CO)cc(-c3cnn(C4CC4)c3)c2F)c2cc(O)ccn12
IC50 (LNCaP C4-2B): 29000 nM | IC50 (CREB-binding protein [1]): 24.8 nM | ΔTm (CREB-binding protein [2]): 14.1 °C

Compound: C[C@@H]1CC(=O)Nc2cccc(-c3ccc4c(c3)c(-c3cnn(C)c3)nn4C)c2N1
IC50 (LNCaP C4-2B): 3350 nM | ΔTm [9]: 7 °C | ΔTm [10]: 5 °C | ΔTm [11]: 1.5 °C | ΔTm [12]: 0 °C | IC50 (CREB-binding protein [1]): 14 nM | ΔTm [13]: -0.2 °C | ΔTm [14]: -0.2 °C | ΔTm [15]: 1 °C | ΔTm [16]: 1 °C | Kd (CREB-binding protein [17]): 68 nM | ΔTm (CREB-binding protein [2]): 14.3 °C | IC50 (LNCaP): 650 nM | ΔTm [18]: -0.2 °C | ΔTm [19]: 15.5 °C | ΔTm [20]: -0.5 °C | IC50 (CWR22R): 3130 nM | ΔTm [21]: 0 °C | ΔTm [22]: -0.3 °C | ΔTm [23]: 1.8 °C | ΔTm [24]: 1.3 °C

Compound: CNC(=O)c1cc(C(=O)Nc2cc(CO)cc(-c3cnn(C)c3)c2F)c2cc(O)ccn12
ΔTm (CREB-binding protein [2]): 2.4 °C

Compound: COc1ccn2c(C(C)=O)cc(C(=O)Nc3cc(C(=O)O)cc(-c4cnn(C)c4)c3F)c2c1
IC50 (CREB-binding protein [1]): 9.8 nM | remaining at 0.75 h, 1 µM [25]: 100% | Kd (CREB-binding protein [17]): 30 nM | ΔTm (CREB-binding protein [2]): 11.4 °C | half-life at 1 µM [6]: > 120 min

Compound: COC(=O)c1cc(NC(=O)c2cc(C(C)=O)n3ccc(OC)cc23)c(F)c(-c2cnn(C)c2)c1
IC50 (LNCaP C4-2B): > 50000 nM | ΔTm (CREB-binding protein [2]): 3.3 °C

Compound: CC(=O)c1cc(C(=O)Nc2cc(CO)cc(-c3cnn(C)c3)c2F)c2cc(O)ccn12
IC50 (LNCaP C4-2B): 34200 nM | Kd (CREB-binding protein [17]): 44 nM | ΔTm (CREB-binding protein [2]): 12.6 °C
